The text below walks through data of patent US20130317045A1, “THIENOPYRIDINE AND THIENOPYRIMIDINE COMPOUNDS AND METHODS OF USE THEREOF” (AMBIT BIOSCIENCES CORPORATION, priority 2010, published 2013).

The test system of test [1] is distinct kinases tested excluding mutant variants, typically 359 or 386 kinases. In words: Kinase selectivity score from competition binding panel. To be noted: compound at 10 μM; fraction of kinases with inhibition of 90% or greater. As to the method: (§1) Competition binding assays used herein were developed, validated and performed as described in Fabian et al., Nature Biotechnology 2005, 23,329-336. Kinases were produced as fusions to T7 phage (See, Fabian et al. or WO04/015142) or alternatively, the kinases were expressed in HEK-293 cells and subsequently tagged with DNA for PCR detection (See, WO08/005310). For the binding assays, streptavidin-coated magnetic beads were treated with biotinylated affinity ligands for 30 min at rt to generate affinity resins. The liganded beads were blocked with excess biotin and washed with blocking buffer (SeaBlock (Pierce), 1% BSA, 0.05% Tween 20, 1 mM DTT) to remove unbound ligand and to reduce non-specific binding. Binding reactions were assembled by combining kinase, liganded affinity beads, and test compounds in 1× binding buffer (20% SeaBlock, 0.17×PBS, 0.05% Tween 20, 6 mM DTT). Test compounds were prepared as 100× stocks in DMSO and rapidly diluted into the aqueous environment. DMSO was added to control assays lacking a test compound. Primary screen interactions were performed in polypropylene 384-well plates in a final volume of 34 μL, while Kd determinations were performed in polystyrene 96-well plates in a final volume of 135 μL. The assay plates were incubated at room temperature with shaking for 1 hour, long enough for binding reactions to reach equilibrium, and the affinity beads were washed extensively with wash buffer (1× PBS, 0.05% Tween 20) to remove unbound protein. The beads were then resuspended in elution buffer (1× PBS, 0.05% Tween 20, 2 μM non-biotinylated affinity ligand) and incubated at room temperature with shaking for 30 min. The kinase concentration in the eluates was measured by quantitative PCR. Each kinase was tested individually against each compound. Kds were determined using eleven serial threefold dilutions. A selectivity score, which is a quantitative measure of selectivity of a compound against a panel of enzymes, may be calculated for a compound by dividing the number of enzymes for which a compound meets a set criteria, (for example, a binding constant of 100 nM or less), by the total number of enzymes tested.

Test [2] deals with GM-CSFR/JAK2/STAT5 pathway in CSTF-1 cells. In words: CSTF-1 cell-based reporter assay (beta-lactamase, GM-CSF stimulated). The arrangement: species or system human. To be noted: GM-CSF at 2 ng/mL, 4 hours, read-out: Cell Assay: CS TF-1 reporter assay IC50. As to the method: CSTF-1 Cell-Based Reporter Assay
CSTF-1 cells are derived from the human erythroleukemia cell line that is growth dependent on GM-CSF and has an intact GM-CSFR/JAK2/STAT5 pathway. The cell line contains stably integrated beta-lactamase reporter gene under the control of the […] (irf 1) response element recognized by the activated transcription factor STATS. csTF-1 cells (Invitrogen K1219) were washed with assay media (97% OPTIMEM/ 0.5% dialyzed FBS/0.1 mM NEAA/1 mM Na pyr/P/S) and seeded in the same media at 5×10^5 cell/mL in T150 flask. After 16 hour incubation, cells were seeded at 2×10^5 cell/well in 50 μl volume, into Costar, clear bottom, 96-well assay plates. Serial dilutions of compounds were added to the plates with final DMSO concentration at 0.5% and GM-CSF at 2 ng/mL and the plates were then incubated at […] and 5% CO2 for 4 hours. The plates were brought to room temperature before adding Substrate Mixture according to manufacturer's protocol (Invitrogen, Catalog #K1085). The assay plates containing the substrate mixture were incubated in the dark at room temperature for 2 hours. Blue and green fluorescence was measured with excitation at 409 nm and emission at 460 nm (for blue) and excitation at 409 nm and emission at 530 nm (for green) using Spectra Max Gemini EM.
(In general: A reporter such as luciferase makes a cellular process visible.)

Test [3] has as its target T1, JAK2 (Homo sapiens, UniProt O60674).
T1 construct: made in house
In words: Competition binding assay, JAK2.
Description: (§2) Competition Binding Assay to Determine Binding Constants (Kd) of the Compounds Against JAK Kinases
as §1

In test [4] the target is T2, TYK2 (Homo sapiens, UniProt P29597).
T2 construct: made in house
In words: Competition binding assay, TYK2.
Description: as §2, §1

The target of test [5] is T3, JAK3 (Homo sapiens, UniProt P52333).
T3 construct: made in house
T3 sequence (P52333 1-1124): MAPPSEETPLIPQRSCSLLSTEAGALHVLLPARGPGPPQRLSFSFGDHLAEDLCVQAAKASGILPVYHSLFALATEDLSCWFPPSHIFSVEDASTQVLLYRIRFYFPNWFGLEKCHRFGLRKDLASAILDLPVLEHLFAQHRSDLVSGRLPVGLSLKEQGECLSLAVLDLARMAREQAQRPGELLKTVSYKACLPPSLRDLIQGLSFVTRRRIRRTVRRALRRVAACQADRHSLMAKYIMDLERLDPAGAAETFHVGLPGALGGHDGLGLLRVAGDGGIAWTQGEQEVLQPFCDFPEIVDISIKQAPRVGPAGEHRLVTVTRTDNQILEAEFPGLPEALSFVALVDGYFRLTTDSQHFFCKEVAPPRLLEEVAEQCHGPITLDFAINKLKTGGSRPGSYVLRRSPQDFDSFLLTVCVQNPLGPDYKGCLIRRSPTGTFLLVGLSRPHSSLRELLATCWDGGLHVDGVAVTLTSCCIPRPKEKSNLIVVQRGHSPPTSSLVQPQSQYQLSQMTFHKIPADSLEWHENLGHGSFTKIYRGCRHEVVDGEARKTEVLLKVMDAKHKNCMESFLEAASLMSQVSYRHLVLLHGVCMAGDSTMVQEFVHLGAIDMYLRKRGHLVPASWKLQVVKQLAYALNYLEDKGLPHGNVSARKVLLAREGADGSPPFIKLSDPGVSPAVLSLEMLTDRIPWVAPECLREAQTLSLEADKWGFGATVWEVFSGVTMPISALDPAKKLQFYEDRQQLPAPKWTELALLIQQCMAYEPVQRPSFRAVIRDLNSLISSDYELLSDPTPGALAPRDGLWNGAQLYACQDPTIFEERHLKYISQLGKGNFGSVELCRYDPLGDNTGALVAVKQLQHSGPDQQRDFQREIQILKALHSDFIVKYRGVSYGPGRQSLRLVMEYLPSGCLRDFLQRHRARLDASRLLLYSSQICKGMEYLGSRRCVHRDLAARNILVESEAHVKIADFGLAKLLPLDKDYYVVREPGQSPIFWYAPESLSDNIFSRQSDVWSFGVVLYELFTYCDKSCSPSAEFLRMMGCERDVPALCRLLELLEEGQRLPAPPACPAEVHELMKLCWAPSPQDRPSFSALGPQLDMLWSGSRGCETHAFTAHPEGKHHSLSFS
In words: Competition binding assay, JAK3.
Description: as §2, §1

Read-outs that look alike come from different tables or passages of the source.

T2 sequence (P29597 whole entry): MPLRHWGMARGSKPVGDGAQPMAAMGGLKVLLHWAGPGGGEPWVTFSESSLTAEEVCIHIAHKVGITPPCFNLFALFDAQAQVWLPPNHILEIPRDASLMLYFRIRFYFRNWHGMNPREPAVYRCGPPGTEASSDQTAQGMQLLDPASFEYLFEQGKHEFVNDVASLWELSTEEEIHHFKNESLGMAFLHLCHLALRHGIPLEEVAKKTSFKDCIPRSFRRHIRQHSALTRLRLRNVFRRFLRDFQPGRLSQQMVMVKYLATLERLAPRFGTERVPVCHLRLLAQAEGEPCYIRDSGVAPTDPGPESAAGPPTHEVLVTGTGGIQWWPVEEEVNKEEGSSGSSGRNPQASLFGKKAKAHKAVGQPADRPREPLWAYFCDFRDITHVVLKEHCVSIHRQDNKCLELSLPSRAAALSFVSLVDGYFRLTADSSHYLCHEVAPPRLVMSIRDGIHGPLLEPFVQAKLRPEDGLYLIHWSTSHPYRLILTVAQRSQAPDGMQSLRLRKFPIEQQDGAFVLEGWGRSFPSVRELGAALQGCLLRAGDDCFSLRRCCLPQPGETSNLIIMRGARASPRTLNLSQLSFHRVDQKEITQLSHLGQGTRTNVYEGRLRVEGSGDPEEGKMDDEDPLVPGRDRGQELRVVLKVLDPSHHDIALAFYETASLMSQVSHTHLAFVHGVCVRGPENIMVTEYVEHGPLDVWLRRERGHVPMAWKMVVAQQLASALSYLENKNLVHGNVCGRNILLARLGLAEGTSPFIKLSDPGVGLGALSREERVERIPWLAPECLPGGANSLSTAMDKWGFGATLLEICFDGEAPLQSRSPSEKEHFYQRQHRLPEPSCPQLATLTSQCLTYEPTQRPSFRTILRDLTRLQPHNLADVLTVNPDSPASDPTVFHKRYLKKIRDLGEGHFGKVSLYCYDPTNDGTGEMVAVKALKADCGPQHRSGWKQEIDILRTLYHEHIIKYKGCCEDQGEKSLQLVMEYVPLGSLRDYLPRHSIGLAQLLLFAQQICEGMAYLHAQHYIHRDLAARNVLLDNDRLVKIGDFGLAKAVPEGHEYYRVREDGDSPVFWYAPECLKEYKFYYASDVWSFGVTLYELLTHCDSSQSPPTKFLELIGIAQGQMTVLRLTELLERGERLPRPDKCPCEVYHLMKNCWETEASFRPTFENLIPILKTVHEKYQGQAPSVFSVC
T1 sequence (O60674 whole entry): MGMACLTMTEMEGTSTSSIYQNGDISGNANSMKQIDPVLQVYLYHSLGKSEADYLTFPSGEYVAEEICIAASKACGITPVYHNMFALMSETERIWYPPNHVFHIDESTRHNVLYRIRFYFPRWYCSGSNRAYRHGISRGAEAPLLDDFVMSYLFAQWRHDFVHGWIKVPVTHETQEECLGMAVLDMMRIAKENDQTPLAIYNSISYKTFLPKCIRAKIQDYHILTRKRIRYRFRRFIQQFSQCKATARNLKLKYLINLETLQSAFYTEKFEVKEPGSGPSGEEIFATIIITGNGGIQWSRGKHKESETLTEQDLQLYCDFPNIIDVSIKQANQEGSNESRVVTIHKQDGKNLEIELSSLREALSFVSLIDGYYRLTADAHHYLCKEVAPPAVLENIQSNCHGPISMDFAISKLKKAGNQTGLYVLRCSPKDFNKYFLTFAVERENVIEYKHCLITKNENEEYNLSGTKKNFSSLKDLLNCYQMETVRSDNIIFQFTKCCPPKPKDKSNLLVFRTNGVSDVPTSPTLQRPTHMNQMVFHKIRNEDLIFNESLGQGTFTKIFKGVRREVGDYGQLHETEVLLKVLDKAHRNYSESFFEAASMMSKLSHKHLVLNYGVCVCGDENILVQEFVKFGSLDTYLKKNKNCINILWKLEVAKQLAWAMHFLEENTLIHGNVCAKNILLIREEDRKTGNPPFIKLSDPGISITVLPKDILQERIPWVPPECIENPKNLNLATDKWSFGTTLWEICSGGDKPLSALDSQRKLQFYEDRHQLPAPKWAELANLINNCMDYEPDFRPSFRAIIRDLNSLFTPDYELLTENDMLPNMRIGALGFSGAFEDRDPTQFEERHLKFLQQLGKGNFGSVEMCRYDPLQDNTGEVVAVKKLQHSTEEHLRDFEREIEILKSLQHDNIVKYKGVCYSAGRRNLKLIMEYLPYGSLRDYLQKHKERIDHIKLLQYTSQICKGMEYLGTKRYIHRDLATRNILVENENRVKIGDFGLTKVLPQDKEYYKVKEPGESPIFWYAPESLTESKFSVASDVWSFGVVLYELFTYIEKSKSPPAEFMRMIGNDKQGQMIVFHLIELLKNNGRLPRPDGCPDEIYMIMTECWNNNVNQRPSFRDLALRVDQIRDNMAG

In general, IC50 refers to the concentration that gives 50% inhibition. In general, Kd refers to the constant that tells how readily two partners part at equilibrium. Lower therefore signals tighter binding. With `Cc1cc(Nc2nc(C(=O)c3ccc(F)cc3)nc3c(C)csc23)n[nH]1` [Example 22, (4-fluorophenyl)(7-methyl-4-(5-methyl-1H-pyrazol-3-ylamino)thieno[3,2-d]pyrimidin-2-yl)methanone], the “S-Score: S(10) at 10 μM” value in test [1] is “A (A ≦ 0.3)”. Further, the IC50 in test [2] (Homo sapiens) was 100 to 500 nM. In addition, the Kd in test [3] was 1 to 10 nM; in test [4], > 100 nM; in test [5], > 100 nM.

Take `CC(C)(C)c1cc2nc(C(F)(F)c3ccc(F)cc3)nc(Nc3cc[nH]n3)c2s1` [Example 31, 6-tert-butyl-2-(difluoro(4-fluorophenyl)methyl)-N-(1H-pyrazol-3-yl)thieno[3,2-d]pyrimidin-4-amine]: the “S-Score: S(10) at 10 μM” value in test [1] was “A (A ≦ 0.3)”. Moreover, in test [2] (Homo sapiens), the 50% inhibitory concentration (IC50) is 100 to 500 nM. Also, the Kd in test [3] was 1 to 10 nM; in test [4], > 100 nM; in test [5], > 100 nM.

For the molecule “(4-(1H-pyrazol-3-ylamino)-7-methylthieno[3,2-d]pyrimidin-2-yl)(4-fluorophenyl)methanone [Example 24]”, in test [1], the “S-Score: S(10) at 10 μM” value is recorded as “A (A ≦ 0.3)”. Moreover, the IC50 in test [2] was > 500 nM. For the same molecule, the values for the dissociation constant Kd in test [3], in test [4] and in test [5] were 1 to 10 nM, > 100 nM and > 100 nM, respectively.

As to `Cc1cc(Nc2nc(C(O)c3ccc(F)cc3)nc3scc(C)c23)n[nH]1` (racemic) [Example 11, (R,S)-(4-Fluorophenyl)(5-methyl-4-(5-methyl-1H-pyrazol-3-ylamino)thieno[2,3-d]pyrimidin-2-yl)methanol], the “S-Score: S(10) at 10 μM” value in test [1] is given as “A (A ≦ 0.3)”. In addition, the IC50 in test [2] (Homo sapiens) is > 500 nM. The Kd in test [3] is > 10 nM; in test [4] it was > 100 nM; in test [5], > 100 nM.

Take `COC(c1ccc(F)cc1)c1nc(Nc2cc(C)[nH]n2)c2ccsc2n1` (racemic) [Example 9, (R,S)-2-((4-fluorophenyl)(methoxy)methyl)-N-(5-methyl-1H-pyrazol-3-yl)thieno[2,3-d]pyrimidin-4-amine]: the “S-Score: S(10) at 10 μM” value in test [1] is recorded as “A (A ≦ 0.3)”. The IC50 in test [2] (Homo sapiens) is 100 to 500 nM. The figures for the Kd in test [3], in test [4] and in test [5] were ≤ 1 nM, ≤ 10 nM and 10 to 100 nM, respectively.

In the case of `Cc1cc(Nc2nc(C(F)(F)c3ccc(F)cc3)nc3ccsc23)n[nH]1` [Example 7, 2-(difluoro(4-fluorophenyl)methyl)-N-(5-methyl-1H-pyrazol-3-yl)thieno[3,2-d]pyrimidin-4-amine], the “S-Score: S(10) at 10 μM” value in test [1] was “C (0.4 < C ≦ 0.5)”. Also, the IC50 in test [2] (Homo sapiens) is ≤ 100 nM. The figures for the Kd in test [3], in test [4] and in test [5] were ≤ 1 nM, ≤ 10 nM and ≤ 10 nM, respectively.

For the molecule `Fc1ccc(C(F)(F)c2nc(Nc3cc[nH]n3)c3sccc3n2)cc1` [Example 8, 2-(difluoro(4-fluorophenyl)methyl)-N-(1H-pyrazol-3-yl)thieno[3,2-d]pyrimidin-4-amine], the “S-Score: S(10) at 10 μM” value in test [1] is reported as “A (A ≦ 0.3)”. In addition, the IC50 in test [2] (Homo sapiens) is ≤ 100 nM. The Kd in test [3] is ≤ 1 nM; in test [4], ≤ 10 nM; in test [5] it was 10 to 100 nM.

As to `CC(C)(C)c1cc2nc(C(O)c3ccc(F)cc3)nc(Nc3cc[nH]n3)c2s1` (racemic) [Example 29, (R,S)-(4-(1H-pyrazol-3-ylamino)-6-tert-butylthieno[3,2-d]pyrimidin-2-yl)(4-fluorophenyl)methanol], the “S-Score: S(10) at 10 μM” value in test [1] is “A (A ≦ 0.3)”. Also, the IC50 in test [2] (Homo sapiens) was 100 to 500 nM. The Kd in test [3] was 1 to 10 nM; in test [4], > 100 nM; in test [5] it was > 100 nM.

On to `Cc1cc(Nc2nc(C(F)(F)c3ccc(F)cc3)nc3sccc23)n[nH]1` [Example 1, 2-(difluoro(4-fluorophenyl)methyl)-N-(5-methyl-1H-pyrazol-3-yl)thieno[2,3-d]pyrimidin-4-amine], for which the “S-Score: S(10) at 10 μM” value in test [1] is “B (0.3 < B ≦ 0.4)”. For the same molecule, the IC50 in test [2] (Homo sapiens) is ≤ 100 nM. In addition, the Kd in test [3] is ≤ 1 nM; in test [4], ≤ 10 nM; in test [5] it was ≤ 10 nM.

For the molecule `Cc1cc(Nc2nc(C(O)c3ccc(F)cc3)nc3cc(C(C)(C)C)sc23)n[nH]1` (stereo not drawn) [Example 27, (6-tert-butyl-4-(5-methyl-1H-pyrazol-3-ylamino)thieno[3,2-d]pyrimidin-2-yl)(4-fluorophenyl)methanol], the “S-Score: S(10) at 10 μM” value in test [1] is recorded as “A (A ≦ 0.3)”. Also, in test [2] (Homo sapiens), the IC50 fell in the range of 100 to 500 nM. Moreover, the Kd was ≤ 1 nM in test [3], > 100 nM in test [4] and 10 to 100 nM in test [5].

With `Cc1cc(Nc2nc(C(F)(F)c3ccc(F)cc3)nc3cc(C(C)(C)C)sc23)n[nH]1` [Example 30, 6-tert-butyl-2-(difluoro(4-fluorophenyl)methyl)-N-(5-methyl-1H-pyrazol-3-yl)thieno[3,2-d]pyrimidin-4-amine], the “S-Score: S(10) at 10 μM” value in test [1] is “A (A ≦ 0.3)”. In test [2] (Homo sapiens), the half-maximal inhibitory concentration (IC50) fell in the range of 100 to 500 nM. The Kd in test [3] was 1 to 10 nM; in test [4] it was > 100 nM; in test [5], 10 to 100 nM.

Take `Cc1cc(Nc2nc(C(O)c3ccc(F)cc3)nc3ccsc23)n[nH]1` (racemic) [Example 6, (R,S)-4-Fluorophenyl)(4-(5-methyl-1H-pyrazol-3-ylamino)thieno[3,2-d]pyrimidin-2-yl)methanol]: the “S-Score: S(10) at 10 μM” value in test [1] is on record as “A (A ≦ 0.3)”. Also, in test [2] (Homo sapiens), the IC50 was ≤ 100 nM. In addition, the equilibrium dissociation constant (Kd) in test [3] was ≤ 1 nM; in test [4], ≤ 10 nM; in test [5], ≤ 10 nM.
